Patent US11129845B2, “Compositions and methods for the delivery of nucleic acids” (CASE WESTERN RESERVE UNIVERSITY, priority 2014, dated 2021)

Tests used:
[1] = tested on: HT29 colon carcinoma cells; test: Cellular uptake of Alexa Fluor 488-siRNA via flow cytometry; format: cell-based, human; details: HT29, N/P=18, 4 h, 100 nM Alexa Fluor 488-siRNA
Experimental: Flow cytometry was used to investigate the cellular uptake of our delivery system in HT29 colon carcinoma cells. All carriers in the library were formulated into nanoparticles by condensing Alexa Fluor 488-labeled siRNA at the optimal N/P ratio determined by the above luciferase knockdown studies. Approximately 50,000 cancer cells were seeded in 6-well plates and allowed to grow until 30-50% confluence was reached. The cancer cells were transfected with a 100 nM siRNA dose in serum-free media. After 4 h, the transfection media were aspirated and the cells were washed twice with PBS. The cells were then trypsinized, collected, and fixed with 2% paraformaldehyde in PBS, prior to flow cytometric analysis.

[2] = Zeta-potential of siRNA-lipid complexes (Malvern Zetasizer); format: physicochemical
Experimental: (§1) The cationic lipid carriers are dissolved in ethanol at a stock concentration of 2.5 mM, while all siRNA is reconstituted in nuclease-free water at a 0.25 μg/μL (18.8 μM) concentration. Nanoparticles are formulated by mixing the carriers with siRNA for a period of 30 min in RNase-free phosphate buffer saline (PBS) at pre-specified N/P ratios (N=number of protonable amines in lipid, P=number of phosphate groups in the siRNA). In preparing the lipoplexes, proper dilutions were made such that the volume ratio of ethanol:water was kept constant at 1:20. Minimizing the amount of ethanol is important because it is effective in dissolving lipids, thus inhibiting particle formation. The diameters (as determined by dynamic light scattering) and zeta potentials of all nanoparticles were analyzed using a Malvern Zetasizer instrument at pH=7.4. siRNA encapsulation efficiency was calculated using a RiboGreen fluorescence-based assay from Invitrogen, designed specifically for detection of free RNA at […] wavelengths of 480 and 520 nm, respectively. Nanoparticles were created with all carriers in the library so that final siRNA concentrations were 1.6 μg/mL. A linear standard curve was utilized to calculate the encapsulation efficiencies from signal intensities measured by a SpectraMax microplate reader (Molecular Devices).

[3] = Nanoparticle diameter and polydispersity by dynamic light scattering (Malvern Zetasizer); format: physicochemical; details: for Nanoparticle diameter as measured by dynamic light scattering: siRNA-lipid complexes
Experimental: as §1

[4] = tested on: CHO-GFP cells; format: cell-based, Chinese hamster
Experimental: Cytotoxicity of the carriers was investigated using an MTT colorimetric assay measuring cellular metabolic activity (Invitrogen). The transfection procedure was identical to that presented for the reporter knockdown studies above, except for the fact that 96 well plates were utilized instead, and seeded with 10,000 cells per well. After transfection, the cells were allowed to grow for an additional 48 h. At that point, they were incubated with MTT for 4 h, followed by an additional 4 hour incubation with an SDS-HCl solution to dissolve any insoluble formazan crystals formed by the reduction of MTT by NAD(P)H-dependent enzymes in the cells. The absorbance of each sample was measured at 570 nm using a SpectraMax microplate reader. Cellular viability was calculated by averaging the signal intensities over three replicates and then normalizing the results relative to the negative control data.
The RNAi capabilities of each carrier were investigated by analyzing the silencing of a luciferase (Luc) reporter in HT29 cancer cells after anti-Luc siRNA therapy. To perform this study, we seeded HT29-Luc cells in 12 well plates at a density of 20,000 cells per well. […] Luciferase expression was determined using a Spectra Max luminometer upon the addition of a light-inducing substrate to the collected protein. […]

[5] = tested on: luciferase reporter; test: Luciferase reporter silencing in HT29-Luc cells; format: cell-based, human; details: HT29, N/P 18, 72 h post-transfection
Experimental: Gene silencing efficiency was investigated in the HT29-Luc cell line by analyzing the expression of a luciferase reporter after anti-Luc siRNA therapy. To perform this study, cancer cells were seeded in 12 well plates at a density of 20,000 cells per well. Transfections were conducted in fresh serum-free media with 100 nM of siRNA when the cells were 25% confluent. The cells continued to grow in normal growth media for an additional 48 and 72 h, at which point they were rinsed twice with PBS and lysed for protein collection. The lysis buffer was a component of a Promega Luciferase Assay kit designed for measuring luciferase expression in the cell lysate. Equally important, the lysis buffer was compatible with the BCA protein assay so that we were able to normalize the luciferase expression in our samples with total protein content. For this silencing study, all synthesized carriers were evaluated at N/P ratios of 8, 10, 12, 14, 16, 18, and 20 to determine the best transfection formulation. Relative luciferase expression was determined for each trial using a SpectraMax luminometer upon the addition of a light-inducing luciferin substrate to the collected protein.
The RNAi capabilities of each carrier were investigated by analyzing the silencing of a luciferase (Luc) reporter in HT29 cancer cells after anti-Luc siRNA therapy. To perform this study, we seeded HT29-Luc cells in 12 well plates at a density of 20,000 cells per well. When 25% confluency, the cells were incubated with fresh serum-free transfection media containing nanoparticles at a dose of 100 nM siRNA. After 4 hours, the media was replaced with fresh complete growth media, so that the cells could continue to grow for an additional 48-72 hours, at which point they were lysed for protein collection. The lysis buffer was compatible with the BCA protein assay so that we could normalize luciferase expression in our samples. Negative controls included cells that were treated with 1) particles encapsulating non-specific siRNA, 2) naked anti-Luc siRNA, or 3) plain serum-free media. Luciferase expression was determined using a Spectra Max luminometer upon the addition of a light-inducing substrate to the collected protein. A similar knockdown experiment was also conducted in non-cancerous CHO cells expressing a GFP reporter. Flow cytometry was utilized to assess the silencing efficiency of the ECO and ECL delivery systems in this cell line. Cytotoxicity of the carriers 48 hours post-transfection was also investigated in both cell lines using an MTT colorimetric assay. […] These RNAi silencing levels surpassed those obtained with a Lipofectamine RNAiMax commercial transfection agent.

Compound	cellular uptake, mean fluorescence intensity (MFI) [1]	Zeta-potential of siRNA-lipid complexes ([2]; pH = 7.4, N/P = 2)	Zeta-potential of siRNA-lipid complexes ([2]; pH = 7.4, N/P = 5)	Zeta-potential of siRNA-lipid complexes ([2]; pH = 7.4, N/P = 8)	Zeta-potential of siRNA-lipid complexes ([2]; pH = 7.4, N/P = 10)	Zeta-potential of siRNA-lipid complexes ([2]; pH = 7.4, N/P = 15)	Polydispersity of siRNA-lipid complexes ([3]; N/P = 2)	Polydispersity of siRNA-lipid complexes ([3]; N/P = 5)	Polydispersity of siRNA-lipid complexes ([3]; N/P = 8)	Polydispersity of siRNA-lipid complexes ([3]; N/P = 10)	Polydispersity of siRNA-lipid complexes ([3]; N/P = 15)	Nanoparticle diameter as measured by dynamic light scattering ([3]; N/P = 2)	Nanoparticle diameter as measured by dynamic light scattering ([3]; N/P = 5)	Nanoparticle diameter as measured by dynamic light scattering ([3]; N/P = 8)	Nanoparticle diameter as measured by dynamic light scattering ([3]; N/P = 10)	Nanoparticle diameter as measured by dynamic light scattering ([3]; N/P = 15)	relative cell viability (MTT) [4]	luciferase knockdown (transfection efficiency) [5]
CCCCC/C=C\C/C=C\CCCCCCCC(=O)NC(CS)C(=O)NC(Cc1cnc[nH]1)C(=O)NCCNC(=O)CCN(CCCNCCCCNCCCN)CCC(=O)NCCNC(=O)C(Cc1cnc[nH]1)NC(=O)C(CS)NC(=O)CCCCCCC/C=C\C/C=C\CCCCC (centres unmarked) [SHCLn]	4414±413	−32.09 ± 1.65 mV	24.02 ± 1.07 mV	26.35 ± 1.40 mV	25.59 ± 2.22 mV	23.80 ± 2.95 mV	0.246	0.183	0.174	0.114	0.163	559 ± 38 nm	223 ± 23 nm	119 ± 13 nm	132 ± 15 nm	75 ± 10 nm	83.3±4.22%	
CCCCCCCC/C=C\CCCCCCCC(=O)NC(CS)C(=O)NC(Cc1cnc[nH]1)C(=O)NCCNC(=O)CCN(CCN)CCC(=O)NCCNC(=O)C(Cc1cnc[nH]1)NC(=O)C(CS)NC(=O)CCCCCCC/C=C\CCCCCCCC (centres unmarked) [EHCO]	1957±208	−23.14 ± 2.47 mV	−14.09 ± 1.88 mV	5.54 ± 1.37 mV	18.80 ± 1.02 mV	22.68 ± 2.08 mV	0.276	0.195	0.165	0.122	0.161	480 ± 30 nm	427 ± 25 nm	380 ± 18 nm	141 ± 15 nm	51 ± 10 nm		46.4±5.8%
CCCCC/C=C\C/C=C\CCCCCCCC(=O)NC(CS)C(=O)NC(Cc1cnc[nH]1)C(=O)NCCNC(=O)CCN(CCN)CCC(=O)NCCNC(=O)C(Cc1cnc[nH]1)NC(=O)C(CS)NC(=O)CCCCCCC/C=C\C/C=C\CCCCC (centres unmarked) [EHCLn]		−23.73 ± 2.26 mV	−17.04 ± 1.32 mV	0.49 ± 1.17 mV	11.34 ± 1.67 mV	24.92 ± 2.89 mV	0.299	0.197	0.167	0.112	0.127	403 ± 35 nm	379 ± 28 nm	227 ± 20 nm	130 ± 14 nm	60 ± 11 nm		
CCCCCCCC/C=C\CCCCCCCC(=O)NC(CS)C(=O)NC(Cc1cnc[nH]1)C(=O)NCCNC(=O)CCN(CCCNCCCCNCCCN)CCC(=O)NCCNC(=O)C(Cc1cnc[nH]1)NC(=O)C(CS)NC(=O)CCCCCCC/C=C\CCCCCCCC (centres unmarked) [SHCO]	3580±244	−32.09 ± 1.65 mV	−18.5 ± 2.43 mV	18.32 ± 1.45 mV	21.76 ± 2.31 mV	23.94 ± 1.70 mV	0.238	0.192	0.189	0.154	0.124	441 ± 32 nm	238 ± 27 nm	139 ± 17 nm	151 ± 16 nm	46 ± 8 nm		
